Laboratory results reported in patent US11643405B2, “Compound for treatment or prevention of liver diseases” (JIANGSU ATOM BIOSCIENCE AND PHARMACEUTICAL CO., LTD., priority 2018, dated 2023).

Tests used:
in vivo = conditions: both sexes, ICR, mouse, po
Method: The test compound was compound 7; the positive control silymarin was purchased from Shanghai Dibai Biotechnology Co., Ltd., with the batch number HH06. Immediately before use, the suspension was prepared with normal saline and ultrasound to prepare a suspension with a corresponding concentration.
Low-dose group (1.5 g/kg) solution preparation: the quantitative test compound 7 or positive control compound was precisely weighed, and a certain amount of normal saline was added to prepare the oral suspension solution with the concentration of 75 mg/mL. The administration volume was 20 mL/kg.
High-dose group (3.0 g/kg) solution preparation: the quantitative test compound 7 or positive control compound was precisely weighed, and a certain amount of normal saline was added to prepare the oral suspension solution with the concentration of 150 mg/mL. The administration volume was 20 mL/kg.
ICR mice, SPF grade, weight: 16-18 g, 6-8 weeks old. Provided by Nantong University, laboratory animal production license number: SCXK (Su) 2014-0001; laboratory animal use license: SYXK (Su) 2017-0007.
16 ICR mice were randomly divided into compound 7 low-dose group, compound 7 high-dose group, silymarin low-dose group and silymarin high-dose group, with 4 mice in each group, half male and half female. […]

[1] = test system: zebrafish non-alcoholic fatty liver; test: Fat reduction or elimination effect on thioacetamide-induced zebrafish non-alcoholic fatty liver (Oil Red O staining); type: in vivo; conditions: for The total optical density of liver fat: mean ± SE, n = 10
Method: 40 mM stock solution of test compounds 4, 5, 6, 7, 46, 67, 78, 85, 92 and 101 were prepared with DMSO, and stored in a refrigerator at −20° C. The positive control compound S-adenosylmethionine (SAM) was purchased from Aladdin Reagent (Shanghai) Co., Ltd., with the batch number F1523051, which was prepared into a 50 mM stock solution with DMSO. The control compound silymarin was purchased from Shanghai Dibai Biotechnology Co., Ltd., with the batch number EE09, which was prepared into a 40 mM stock solution with DMSO. Thioacetamide was purchased from Sigma-Aldrich, with the batch number BCBV3031, which wasprepared into a 1 M stock solution with DMSO. Oil Red O was purchased from Sigma-Aldrich, with the batch number SLBP5248V. 4% paraformaldehyde was purchased from Dingguo Biotechnology Co., Ltd., with the batch number 773001800. Propylene glycol was purchased from Sinopharm Chemical Reagent Co., Ltd., with the batch number 20170615.
The melanin allele mutant translucent Albino line zebrafish was reproduced in natural paired mating. The fish age was 3 days after fertilization, with 30 fish per experimental group.
The above zebrafish were raised in fish farming water at 28° C. (water quality: 200 mg instant sea salt was added to 1 L of reverse osmosis water, conductivity was 480-510 μS/cm; pH was 6.9-7.2; hardness was 53.7-71.6 mg/L CaCOs), the experimental animal use license number was: SYXK (Zhejiang) 2012-0171. Feeding management met the requirements of international AAALAC certification.
Three days after fertilization, the normal melanin allele mutant translucent Albino strain of zebrafish was randomly selected and placed in a six well plate with 30 fish per well (i.e. each experimental group), and then thioacetamide with the final concentration of 7 mM was used to treat zebrafish for 72 hours to establish the non-alcoholic fatty liver model.
The zebrafish were transferred to a six-well plate, with 30 fish per well (i.e., each experimental group) randomly. Non-alcoholic fatty liver model in zebrafish were induced by thioacetamide. 40 mM test compounds 4, 5, 6, 7, 46, 67, 78, 85, 92 and 101 were quantitatively transferred to a six-well plate, and diluted with water to the corresponding concentration. Test compounds 4, 5, 6 and 7 were formulated into two dose groups with final concentration of 100 μM and 200 μM, respectively; test compound 46 was formulated into a dose group with final concentration of 200 μM; test compounds 67, 78, 85, 92 and 101 were formulated into dose groups with a final concentration of 100 μM; 50 mM positive control SAM was formulated with water to a dose group with final concentration of 50 μM, and a 40 mM positive control silymarin was formulated with water to two concentration dose groups with final concentration of 100 μM and 200 μM. A normal control group (zebrafish treated with fish farming water) and a model control group were set at the same time, and the total volume of each well was 3 mL. Except for the normal control group, the other experimental groups were treated with thioacetamide for 72 hours and stained with Oil Red O. After staining, 10 zebrafish were randomly selected from each experimental group and photographed under a dissecting microscope, NIS-Elements D 3.10 advanced image processing software was used to perform image analysis and collect data, the total optical density (S) of zebrafish liver fat was statistically analyzed, and for the inhibitory effect of each experimental group on liver steatosis of zebrafishwas evaluated by the following formula, the results of statistical analysis were expressed as mean±SE: Inhibition rate of liver steatosis (%)=[S(model control group)−S(test compound group)]/[S(model control group)−S(normal control group)]×100%
Statistical analysis was performed using analysis of variance and Dunnett's T-test, and p<0.05 indicated a significant difference. […]

## COc1cc(C2Oc3cc(C4Oc5cc(O)cc(O)c5CC4O)cc(O)c3OC2CO)ccc1O (stereo not shown) [Compound 7, 2-{8-hydroxy-3-(4-hydroxy-3-methoxyphenyl)-2-hydroxymethyl-2,3-dihydrobenzo[b][1,4]dioxan-6-yl}chroman-3,5,7-triol]
In vivo
  MTD at 14 days: 3000 mg/kg
[1]; 100 μM
  Therapeutic effect on non-alcoholic fatty liver of zebrafish (in words): significant therapeutic effects
  The total optical density of liver fat: 17835 ± 351 Pixels
[1]; 200 μM
  Therapeutic effect on zebrafish non-alcoholic fatty liver (in words): significant therapeutic effect
  The total optical density of liver fat: 18090 ± 437 Pixels
[1]; Danio rerio, 100 μM, read-out: Inhibition rate of liver steatosis
  inhibition at 100 µM: 98%
[1]; Danio rerio, 200 μM, read-out: Inhibition rate of liver steatosis
  inhibition at 200 µM: 93%
